± gives the standard deviation of the averaged measurements.
Legend:
Experiment in all cases: level (log10 ratio to DMSO vehicle control); higher = higher biomarker level / cell amount than vehicle control
[1] = compound: CCOC(=O)CC(=O)C(F)(F)C(F)(F)F [Ethyl pentafluoropropionyl acetate] (in DMSO)
Description: (§1)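 BioMAP Diversity Plus panel of 12 human primary cell co-culture systems (3C, 4H, LPS, SAg, BT, BF4T, BE3C, CASM3C, HDF3CGF, KF3CT, MyoF, Mphg). Compounds were added 1 h before stimulation and left for 24 h (MyoF 48 h; BT 72 h for soluble read-outs or 6 d for IgG). Biomarkers were read by ELISA, cytotoxicity by SRB, PBMC viability and proliferation by Alamar Blue. Each well value was divided by the mean of 8 DMSO control wells on the same plate and log10 transformed; duplicate blinded samples were tested at 4 concentrations.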

[2] = compound: OCC(F)(F)OC(F)(F)C(F)(F)OC(F)(F)C(F)(F)OC(F)(F)CO [1H,1H,11H,11H-Perfluorotetraethylene glycol] (in DMSO)
Description: as §1

[3] = compound: O=S(=O)(O)C(F)(F)C(F)(F)C(F)(F)C(F)(F)C(F)(F)C(F)(F)C(F)(F)F [Perfluoroheptanesulfonic acid] (in DMSO)
Description: as §1

[4] = compound: O=C(O)C=C(C(F)(F)F)C(F)(F)F [3,3-Bis(trifluoromethyl)-2-propenoic acid] (in DMSO)
Description: as §1

[5] = compound: OCCC(F)(F)C(F)(F)C(F)(F)C(F)(F)F [4:2 Fluorotelomer alcohol] (in DMSO)
Description: as §1

Perfluoroundecanoic acid = compound: O=C(O)C(F)(F)C(F)(F)C(F)(F)C(F)(F)C(F)(F)C(F)(F)C(F)(F)C(F)(F)C(F)(F)C(F)(F)F [Perfluoroundecanoic acid] (in DMSO); conditions: 6700 nM
Description: as §1

[6] = compound: O=S(=O)(O)CCC(F)(F)C(F)(F)C(F)(F)C(F)(F)C(F)(F)C(F)(F)C(F)(F)C(F)(F)F [8:2 Fluorotelomer sulfonic acid] (in DMSO)
Description: as §1

Test System	level (log10) ([1]; 6700 nM)	level (log10) ([1]; 20000 nM)	level (log10) ([1]; 60000 nM)	level (log10) ([2]; 6700 nM)	level (log10) ([2]; 20000 nM)	level (log10) ([2]; 60000 nM)	level (log10) ([3]; 1500 nM)	level (log10) ([3]; 4400 nM)	level (log10) ([3]; 13000 nM)	level (log10) ([3]; 40000 nM)	level (log10) ([4]; 6700 nM)	level (log10) ([4]; 20000 nM)	level (log10) ([4]; 60000 nM)	level (log10) ([5]; 6700 nM)	level (log10) ([5]; 20000 nM)	level (log10) ([5]; 60000 nM)	level (log10) (Perfluoroundecanoic acid)	level (log10) ([6]; 6700 nM)	level (log10) ([6]; 20000 nM)	level (log10) ([6]; 60000 nM)
HDF3CGF:TIMP-1	-0.0085 ± 0.037	-0.007 ± 0.0071	-0.0305 ± 0.012	-0.023 ± 0.089	0.0015 ± 0.11	-0.073 ± 0.092	-0.004 ± 0.013	-0.001 ± 0.071	-0.002 ± 0.045	0.012 ± 0.1	-0.0935 ± 0.049	-0.125 ± 0.065	-0.0675 ± 0.013	-0.045 ± 0.018	-0.02 ± 0.059	0.0035 ± 0.005	0.0385 ± 0.043	0.0375 ± 0.0064	0.0435 ± 0.037	-0.0365 ± 0.077
HDF3CGF:TIMP-2	-0.05 ± 0.044	-0.012 ± 0.024	-0.069 ± 0.011	-0.0285 ± 0.011	-0.046 ± 0.11	-0.121 ± 0.07	-0.0185 ± 0.0064	-0.0395 ± 0.029	-0.0115 ± 0.028	-0.045 ± 0.0014	-0.0175 ± 0.013	-0.0595 ± 0.028	-0.082 ± 0.03	-0.0305 ± 0.026	-0.01 ± 0.017	-0.044 ± 0.027	0.009 ± 0.0042	-0.003 ± 0.016	-0.023 ± 0.016	-0.0475 ± 0.022
KF3CT:CCL2/MCP-1	-0.0355 ± 0.0064	-0.045 ± 0.035	0.001 ± 0.071	-0.025 ± 0.024	-0.044 ± 0.024	-0.005 ± 0.0042	-0.0115 ± 0.022	-0.011 ± 0.011	0.0015 ± 0.0021	0.0125 ± 0.022	-0.0055 ± 0.036	-0.015 ± 0.014	-0.028 ± 0.052	-0.001 ± 0.02	-0.0675 ± 0.035	0.009 ± 0.048	-0.075 ± 0.011	-0.0135 ± 0.005	-0.0585 ± 0.029	-0.0475 ± 0.011
KF3CT:CD54/ICAM-1	-0.003 ± 0.024	0.006 ± 0.014	0.0075 ± 0.03	-0.016 ± 0.0085	-0.008 ± 0.02	-0.006 ± 0.035	-0.013 ± 0.0085	0.001 ± 0.0099	-0.0085 ± 0.0078	0.0005 ± 0.0078	-0.007 ± 0.0057	0.008 ± 0.0071	0.022 ± 0.016	-0.0115 ± 0.0092	0.0015 ± 0.019	-0.009 ± 0.0057	-0.019 ± 0.0028	-0.026 ± 0.02	-0.0495 ± 0.018	-0.0515 ± 0.005
KF3CT:CXCL8/IL-8	-0.012 ± 0.018	-0.0155 ± 0.0021	-0.0005 ± 0.029	-0.0085 ± 0.022	-0.0255 ± 0.021	-0.0125 ± 0.011	0.001 ± 0.014	-0.0095 ± 0.03	0 ± 0.03	0.0065 ± 0.022	-0.004 ± 0.0028	0.0025 ± 0.0092	0.0245 ± 0.016	0.0025 ± 0.0021	0.0185 ± 0.013	0.028 ± 0.017	-0.0315 ± 0.037	0.016 ± 0.038	-0.03 ± 0.023	-0.131 ± 0.036
KF3CT:CXCL9/MIG	0.002 ± 0.0028	0.0015 ± 0.0078	-0.0025 ± 0.0064	-0.006 ± 0.031	-0.001 ± 0.013	-0.013 ± 0.018	-0.005 ± 0.0071	-0.006 ± 0.0099	-0.005 ± 0.0028	0.014 ± 0.0042	0.0015 ± 0.005	-0.003 ± 0.0085	0.006 ± 0.011	-0.0055 ± 0.029	-0.0115 ± 0.021	-0.0115 ± 0.0035	0.0135 ± 0.018	0.005 ± 0.017	0.003 ± 0.0099	0.01 ± 0.0057
KF3CT:CXCL10/IP-10	-0.002 ± 0.013	-0.009 ± 0.0057	-0.009 ± 0.0071	-0.0035 ± 0.018	-0.0065 ± 0.0064	-0.027 ± 0.016	0.006 ± 0.0014	-0.0045 ± 0.00071	-0.005 ± 0.0042	-0.014 ± 0.0028	-0.01 ± 0.013	-0.027 ± 0.0014	-0.0225 ± 0.019	0.009 ± 0.04	-0.0005 ± 0.00071	0.019 ± 0.024	-0.054 ± 0.017	-0.015 ± 0.0028	-0.044 ± 0.0042	-0.0495 ± 0.00071
